From patent US20070134725A1, “METHOD TO PREDICT RISK OF BPH PROGRESSION” (Baylor College of Medicine, priority 2004, published 2007)

Tests used:
men with LUTS and BPH [1] = assay: MTOPS trial of finasteride and doxazosin, alone or together, in men with BPH; Cox/competing risks models; assay type: in vivo, human; settings: for Hazard Ratio: multivariable Cox model; for risk of AUR and/or SI in treated patients / risk of symptom progression in treated patients: within 4 years, result in words
Description: Medical Therapy of Prostatic Symptoms (MTOPS) is a clinical research study sponsored by the National Institutes of Health (NIH). The study tested whether the oral drugs finasteride (Proscar®) and doxazosin (Cardura®), alone or together, can further delay or prevent further prostate growth in men with BPH.
MTOPS is the largest and longest study to test whether the drugs can stop noncancerous prostate growth. Seventeen U.S. medical centers recruited […] men diagnosed with symptomatic BPH between December 1995 and March 1998. The study doctors continued to follow these men through November 2001 on a quarterly basis. In addition to the clinical progression of BPH, MTOPS included evaluations of prostate volume by ultrasound, prostate histopathobiology, quality of life and urodynamics. (Funding by NIDDK (UO1-DK-46472), 1992-2002; IND 43,564; http://www.bsc.gwu.edu/mtops/; McConnell et al., 2003).)
Herein described is the development of a nomogram similar to that shown in Examples 1 and 3 using data from the MTOPS study. In this double-blind, randomized, placebo-controlled trial, 3047 men with moderate-to-severe urinary symptoms and enlarged prostate glands were randomized to receive either 1) doxazosin+placebo; 2) finasteride+placebo; 3) doxazosin+finasteride; or 4) placebo+placebo for a minimum of four and a maximum of six years, with an average follow-up of five years. Complete data on outcomes were available for 3047 men and frozen sera was archived at baseline.
(§1) Intent-to-treat, competing risks methodology was employed to model the 3,047 men with LUTS and BPH randomized to the MTOPS trial, a 5 year, randomized, placebo-controlled study evaluating the efficacy and safety of BPH medical therapy. These men were characterized at baseline by a number of parameters, including patient age and race, AUA symptom index (AUA-SI), BPH Impact Index (BII), total prostate and TZ volume measured by ultrasound, total prostate specific antigen (PSA) level, maximum flow rate (Qmax) and post-void residual (PVR) urine volume. Cox proportional hazards regression was used to relate these baseline variables to their future probability of AUR/SI within 4 years. The nomogram was internally validated with bootstrapping to assess its discrimination and calibration. Discrimination was quantified as the concordance index (CI).
as §1, with “used” for “employed”, “(Qmax),” for “(Qmax)”, “reaching a symptom progression endpoint” for “AUR/SI”
Table 13 provides P values for a series of predictors, including BPSA levels, in a multivariate competing risks model for AUR and/or SI. BPSA is a novel serum marker for BPH, and independently predicts the risk of AUR and/or surgery in men with BPH. Thus, nomogram tools that incorporate BPSA levels may improve the ability to manage patients with BPH.

men with LUTS and BPH [2] = test system: men with LUTS and BPH; parameters: Creatinine Rise, endpoint events: unit not given here; settings: entire MTOPS cohort, number of events per treatment group; cited from earlier work
male subjects with BPH [3] = assay: Phase III placebo-controlled studies of dutasteride in men with BPH (ARIA 3001, 3002, 3003); Cox regression nomogram for AUR/SI within 2 years; assay type: in vivo, human
Description: The use of single parameters to predict the risk of BPH progression or to determine the relative reduction potentially gained with 5ARI therapy is not optimal. Nomograms are prediction tools optimized for accuracy that utilize multiple parameters to predict specific outcomes. The objective of this study was to develop a prediction model, or nomogram, that would predict the probability that a person with BPH would experience AUR or require surgical intervention (SI) within two years, using data from the recently completed Phase III studies of dutasteride versus placebo in men with BPH (Roehrborn et al. 2002).
Data from three two-year multicenter, placebo-controlled, double-blind studies evaluating dutasteride 0.5 mg/day (n=2,167) or placebo (n=2,158) in male subjects with BPH were utilized to develop a nomogram. […] Most of the 4,325 subjects randomly assigned to receive either dutasteride or placebo completed 2 years of treatment (70% and 67%, respectively).
Subjects were characterized at baseline by a number of parameters, including AUA symptom index (AUA-SI) score, BPH impact index (BII) score, prostate volume, prostate specific antigen (PSA) level, maximum urinary flow rate (Qmax), and prior use of selective α1 blockers. Cox proportional hazards regression was used to relate these baseline variables to the future probability of developing AUR or requiring surgical intervention within 2 years. The nomogram was internally validated with bootstrapping, a re-sampling technique, to assess its discrimination and calibration. Discrimination was quantified as the concordance index, which is rated from 0.5 to 1.00. Calibration was assessed visually, by plotting observed proportions against predicted probabilities, again using bootstrapping to reduce over-fit bias.
With these benefits in mind, a nomogram was constructed to predict the risk of BPH progression using data from a phase III pivotal trial (ARIA 3001, 3002, 3003) used to establish the safety and efficacy of dutasteride prior to FDA approval. For each individual predictive parameter, points are awarded by drawing a perpendicular line to the point scale along the top of the nomogram. After all points are added, a perpendicular line is drawn from the bottom, total points scale to the line below, indicating the 2 year probability of a patient's developing retention or requiring BPH-related surgery within two years. Note that the use of dutasteride (versus placebo) leads to a total point score reduced by approximately 20 to 25 points, which translates to a 50% relative risk reduction across the entire range of total points for any patient. […] Thus, a 50% relative risk reduction over two years translates into about 13 to 14% absolute risk reduction over this very short time frame, with a much greater benefit likely experienced over time.

male subjects with BPH [4] = settings: cited from earlier work
[5] = test system: men with moderate-to-severe urinary symptoms and enlarged prostate glands; settings: PLESS, 5 mg finasteride, four years; cited from earlier work
[6] = AUR/SI within 4 years, intent-to-treat, competing risks
[7] = symptom progression (4-point rise in AUA-SI) within 4 years
[8] = dutasteride 0.5 mg/day vs placebo, over 24 months

Row | Structure (SMILES) | Hazard Ratio (men with LUTS and BPH [1]; [6]) | Hazard Ratio (men with LUTS and BPH [1]; [7]) | risk of AUR and/or SI in treated patients (men with LUTS and BPH [1]) | risk of symptom progression in treated patients (men with LUTS and BPH [1]) | AUA Rise, endpoint events (men with LUTS and BPH [2]) | BPH Invasive Therapy, events (men with LUTS and BPH [2]) | Creatinine Rise, endpoint events (men with LUTS and BPH [2]) | Incontinence, endpoint events (men with LUTS and BPH [2]) | Retention, endpoint events (men with LUTS and BPH [2]) | Total endpoint events (men with LUTS and BPH [2]) | UTI/urosepsis, endpoint events (men with LUTS and BPH [2]) | also measured
1 | COc1cc2nc(N3CCN(C(=O)C4COc5ccccc5O4)CC3)nc(N)c2cc1OC (stereo not shown) [doxazosin] | 0.7154 | 0.5278 | not | significantly reduced risk of symptom progression | 59 | 41 | 0 | 11 | 13 | 85 | 2 | –
2 | C[C@]12C=CC(=O)N[C@@H]1CC[C@@H]1[C@@H]2CC[C@]2(C)[C@@H](C(=O)Nc3cc(C(F)(F)F)ccc3C(F)(F)F)CC[C@@H]12 [dutasteride] | – | – | – | – | – | – | – | – | – | – | – | relative risk reduction across the entire range of total points (male subjects with BPH [3]; 2-year AUR/SI nomogram): 50%; Hazard Ratio (95% CIs) (male subjects with BPH [3]; full multivariate Cox model, AUR or surgical intervention within 2 years, dutasteride vs placebo group): 0.50 (0.37, 0.66); absolute risk reduction (male subjects with BPH [3]; over two years, most severely affected patients (27% maximum risk)): 13 to 14%; reduction of nomogram total point score (male subjects with BPH [3]; use of dutasteride versus placebo, 2-year AUR/SI nomogram): 20 to 25 points; relative risk reduction of AUR and/or surgical intervention (male subjects with BPH [3]; vs placebo, at endpoint): 50%; patients who had experienced AUR and/or surgical intervention at endpoint (male subjects with BPH [4]; at endpoint, 2-year studies): 3.5%; reduction in the need for BPH-related surgery (male subjects with BPH [4]; [8]): 48%; reduction in the risk of AUR (male subjects with BPH [4]; [8]): 57%
3 | CC(C)(C)NC(=O)[C@H]1CC[C@H]2[C@@H]3CC[C@H]4NC(=O)C=C[C@]4(C)[C@H]3CC[C@]12C [finasteride] | 0.3506 | 0.6961 | reduced risk of AUR and/or SI | significantly reduced risk of symptom progression | 74 | 15 | 0 | 9 | 6 | 89 | 0 | incidence of BPH-related surgery [5]: 5%; incidence of precipitated AUR [5]: 2%; incidence of spontaneous AUR [5]: 1%; overall incidence of AUR [5]: 4%
